{
  "source": "patent US20100267733A1",
  "about": "“Synergistic Modulation of Microglial Activation by Nicotine and THC” (UNIVERSITY OF SOUTH FLORIDA, priority 2007, published 2010)",
  "key": {"microglial cells [1]": {"tested_on": "microglial cells", "test": "LPS-induced TNF-α release in cultured microglial cells (ELISA)", "type": "cell-based, murine", "protocol": "Cultured microglial cells were plated in 24-well tissue-culture plates (Costar, Cambridge, Mass.), using minimum essential media supplemented with 5% fetal bovine serum, at […] cells per well. […] After pretreatment the cells were stimulated with LPS (100 ng/mL) for 4 hrs. Cell-free supernatants were collected and stored at −70° C. until analysis. The TNF-α level in the supernatants were examined using ELISA kits (R&D Systems) in strict accordance with the manufacturers' protocols. Cell lysates were also prepared and the Bio-Rad protein assay (Hercules, Calif.) was performed to measure total cellular protein. Results are shown as mean pg of TNF-α per mg of total cellular protein (+1-SEM).\nMurine primary culture microglial cells were isolated from newborn mouse cerebral cortices under sterile conditions and kept at 4° C. prior to mechanical dissociation. Cells were plated in 75 cm^2 flasks in RPMI medium supplemented with 5% fetal calf serum, 2 mM glutamine, 100 units/mL penicillin, 0.1 μg/mL streptomycin, and 0.05 mM 2-mercaptoethanol and kept for 14 days so only glial cells remain. The microglial cells were isolated by shaking the flasks at 200 rpm. More than 98% of the glial cells remaining stain positive for membrane attack complex-1 (CD-11b, Roche Diagnostics Corp., Indianapolis, Ind.). Additionally, between 85% and 95% of microglial cells usually stain positive for CD45 by fluorescence activated cell sorter (FACS) analysis.\nCell cultured media was collected for measurement of cytokines by commercial cytokine ELISA kits, as described previously. In parallel, cell lysates were prepared for measurement of total cellular protein. Data was represented as ng/mg total cellular protein for each cytokine production.\nCell cultures were treated with nicotinic/THC treatment, as described above. […] Each cytokine was represented as pg of cytokine/mg of total cellular protein. Data was analyzed using ANOVA with post hoc comparison using Bonferroni's or Dunnett's T3 methods as determined by Levene's test for equality of the variances."}, "[2]": {"tested_on": "primary cultured microglial cells", "type": "cell-based, murine", "experimental": "Primary cultured microglial cells (1×10^5 cells/well in 24-well tissue-culture plates) were treated with FITC-tagged Aβ1-42 (300 nM, pre-aggregated for 24 h at 37° C. in complete medium for 60 mm in the absence (control) or presence of nicotine ([…]). In addition, in parallel 24-well tissue-culture plates, microglial cells were incubated at […] with the same treatment above. Cell supernatants and lysates were analyzed for (A) extracellular and (B) cell associated FITC-Aβ using a fluorometer.\nConcentration-response and time-course functions for microglial phagocytosis (cellular uptake) of Aβ1-42 peptide were then characterized. […] To fully characterize these effects, primary microglial cells cultured in 24-well tissue-culture plates (1×10^5/well) were treated for 0, 15, 30, 60, 120, and 180 mm with “aged” FITC tagged Aβ1-42 peptide at 300 nM in the presence or absence of nicotine (0.1-10 μM), THC (0.01-10 μM), and their combination. The microglia were then administered nicotine (0.1-10 μM), THC (0.01-10 μM) and a combination. In addition, cannabinoid antagonists, AM 251 (CB1) and AM 281 […] (0.01-10 μM), cannabinoid agonists, ACEA (CB1) and JHW 015 (CB2) (0.01-10 μM), and nicotinic receptor antagonists, mecamylamine (α4β2) and α-bungorotoxin (α 7) (0.01-10 μM) were used in challenge experiments to determine receptor specificity. For fluorescence analysis, the cells were then washed 5 times with ice-cold PBS to remove the extracellular Aβ, and fixed in 4% paraformaldehyde. The cells were mounted and viewed under an Olympus IX71/IX51 fluorscence microscope equipped with a digital camera system. Image Pro software was used to quantify fluorescence signals, using a minimum of 5 random fields. For fluorometric analysis, microglial cells were treated in parallel, rinsing the cells 3 times with medium and the cells lysed. Extracellular and cell associated FITC tagged Aβ was quantified using an MFX 96-well microplate fluorometer (Molecular Devices, MDS, Inc., Sunnyvale, Calif.) with an emission wavelength of 538 nm and an excitation wavelength of 485 nm. A standard curve from 0 nM to 500 nM of FITC-tagged Aβ was run for each plate. The total cellular protein of all groups was quantified using the Bio-Rad protein assay. In addition, in parallel 24-well tissue-culture plates, microglial cells was incubated at 4° C. with FITC-conjugated Aβ with or without various combinations of CD40L as controls for non-specifically incorporated Aβ. Microglial cells was then rinsed 3 times in Aβ-free complete medium, and the media was exchanged with fresh Aβ-free complete medium for 10 min both to allow for removal of non-incorporated Aβ and to promote concentration of the Aβ into phagosomes. The mean fluorescence values for each sample at 37° C. and 4° C. at the indicated time points were determined by fluorometic analysis. Relative fold change values were calculated as: (mean fluorescence value for each sample at 37° C./mean fluorescence value for each sample at 4° C.). In this manner, both extracellular and cell associated FITC-labeled Aβ were quantified.\nFor phagocytosis experiments, an important concern is the possibility of extracellular association of Aβ with microglial cell membrane. To address this issue, microglial cells was rinsed in Aβ-free complete medium, and media was exchanged with fresh Aβ-medium for 10 mm both to allow for removal of non-specifically incorporated Aβ and to promote concentration of the Aβ into phagosomes. Microglial cells were further cultured in parallel 24-well plates incubated at 4° C. with FITC-tagged Aβ at the same time points in the presence or absence of the appropriate treatment as control for non-specifically incorporated Aβ."}, "microglial cells [3]": {"tested_on": "microglial cells"}, "Tg2576 transgenic mice": {"tested_on": "Tg2576 transgenic mice", "conditions": "mouse, in vivo; cited from earlier work"}, "N9 cells": {"tested_on": "N9 cells", "test": "Cannabinoid agonist effects on microglial (N9) activation: TNF-α and NO release", "type": "cell-based, murine", "conditions": "JWH-015 5 μM", "experimental": "(§1) FIG. 3 is a block graph showing cannabinoid agonist effects on microglial (N9) activation. Cultured microglial cells were incubated with 100 ng/mL LPS (LPS), a combination of IFN-γ (100 U/mL) and CD-40L (2 μg/mL), or a combination of Aβ1-42 (1 μM) and CD-40L (2 μg/mL) and co-treated with JWH-015 (5 μM). Anti-CB2 siRNA was added to cells, abolishing the ability of JWH-015 to reduce LPS-induced cytokine release (n=3, **p<0.05). ELISA analysis of microglial cell release of (A) TNF-α and (B) NO was measured and mean levels per mg of total protein shown.\nCannabinoid receptors are expressed on microglia and regulate microglial function. As such, cannabinoid regulation of CD40 activation of microglial was investigated. N9 cells, transfected for 18 hr with specific murine CB2 targeting siRNA (100 nM), were treated for 4 hr with lipopolysaccharid (LPS), a positive control of microglia activation."}, "[4]": {"tested_on": "mouse primary microglial cells", "test": "TNF-α secretion by primary microglial cells stimulated with IFN-γ/CD40L or Aβ1-42/CD40L (ELISA)", "type": "cell-based", "conditions": "24 hr, presence of JWH-015", "experimental": "as §1\nTo examine the functional consequences of CB2 agonist treatment on CD40 expression, mouse primary microglial cells were stimulated with either IFN-γ/CD40L protein (Polazzi, E., A. Contestabile, Reciprocal interactions between microglia and neurons: from survival to neuropathology. Rev. Neurosci., 2002. 13(3): 221-242; Facchinetti, F., et al., Cannabinoids ablate release of TNFalpha in rat microglial cells stimulated with lypopolysaccharide. Glia, 2003. 41(2): 161-168; Walter, L., et al., Nonpsychotropic cannabinoid receptors regulate microglial cell migration. J. Neurosci. 2003. 23(4):1398-405) or Aβ1-42/CD40L protein in the presence or absence of JWH-015 for 24 hr. […] After 3 hr, the amount of phagocytosed Aβ1-42 peptide was determined by quantitative immunoblotting experiments, seen in FIG. 4. […]"}, "[5]": {"tested_on": "mouse primary microglial cells", "test": "Microglial phagocytosis of Aβ1-42 / Cy3-Aβ1-42 with CD40L (phagocytosis assay, quantitative immunoblotting)", "type": "cell-based", "experimental": "FIG. 4 is a graph showing CB2 stimulation modulates microglial phagocytic function. Mouse primary microglial cells were seeded at 5×10^5 cells/well and treated with 3 μM Cy3™-Aβ1-42 with CD-40L protein (2.5 μg/mL), JWH-015 (5 μM) or both JWH-015 and CD-40L. Aβ mean band densities are represented as ratios to β-actin+/−SD (n=3 for each condition).\nTo examine the functional consequences of CB2 agonist treatment on CD40 expression, mouse primary microglial cells were stimulated with either IFN-γ/CD40L protein (Polazzi, E., A. Contestabile, Reciprocal interactions between microglia and neurons: from survival to neuropathology. Rev. Neurosci., 2002. 13(3): 221-242; Facchinetti, F., et al., Cannabinoids ablate release of TNFalpha in rat microglial cells stimulated with lypopolysaccharide. Glia, 2003. 41(2): 161-168; Walter, L., et al., Nonpsychotropic cannabinoid receptors regulate microglial cell migration. J. Neurosci. 2003. 23(4):1398-405) or Aβ1-42/CD40L protein in the presence or absence of JWH-015 for 24 hr. […] The canonical microglial function in the CNS is thought to be phagocytosis, given that IFN-γ and CD40 signaling are maturation agents that oppose this phagocytic function. Murine primary microglial cultures were exposed to 3 μM of Aβ1-42 (for immunoblotting) or Cy3™-Aβ1-42 (for phagocytosis assay) in the presence or absence of CD40L protein or CD40L protein/JWH-015. After 3 hr, the amount of phagocytosed Aβ1-42 peptide was determined by quantitative immunoblotting experiments, seen in FIG. 4. […] CD40 ligation decreased microglial phagocytosis compared to controls, while CB2 agonist treatment alone increased phagocytosis compared to control. The presence of JWH-015 rescued microglial phagocytosis of Cy3-Aβ1-42 following CD40L treatment."}},
  "note": "Where two headings read alike, the source gives them in different places.",
  "data": [
    {"compound": "CNC1(C)C2CCC(C2)C1(C)C", "note": "(centres unmarked) [mecamylamine]", "values": [
      {"measurement": "prevention of the ACh and nicotine inhibition of LPS-induced TNF-α release", "setting": "microglial cells [1]", "result": "prevented"}
    ]},
    {"compound": "CCCCCc1cc(O)c2c(c1)OC(C)(C)[C@@H]1CCC(C)=C[C@@H]21", "note": "[THC, Δ^9-tetrahydrocannabinol]", "values": [
      {"measurement": "cell-associated FITC-Aβ1-42", "setting": "[2]; THC 5 μM", "result": "increasing"},
      {"measurement": "extracellular FITC-Aβ1-42 remaining in the supernatant", "setting": "[2]; THC 5 μM", "result": "markedly decreased"},
      {"measurement": "receptor mediating the effect on microglial phagocytosis of Aβ", "setting": "[2]; challenge experiments with receptor antagonists/agonists", "result": "cannabinoid CB2 receptors"}
    ]},
    {"compound": "CN1CCCC1c1cccnc1", "note": "(centres unmarked) [nicotine]", "values": [
      {"measurement": "LPS-induced TNF-α release", "setting": "microglial cells [1]", "result": "inhibited"},
      {"measurement": "cell-associated FITC-Aβ1-42", "setting": "[2]", "result": "increasing"},
      {"measurement": "extracellular FITC-Aβ1-42 remaining in the supernatant", "setting": "[2]", "result": "markedly decreased"},
      {"measurement": "microglial phagocytosis of Aβ1-42 peptide", "setting": "[2]", "result": "enhanced"},
      {"measurement": "receptor mediating the effect on microglial phagocytosis of Aβ", "setting": "[2]", "result": "α7 nicotinic receptors"},
      {"measurement": "microglial-released IL-1β", "setting": "microglial cells [3]", "result": "effectively suppress"},
      {"measurement": "microglial-released IL-6", "setting": "microglial cells [3]", "result": "effectively suppress"},
      {"measurement": "microglial-released TNF-α", "setting": "microglial cells [3]", "result": "effectively suppress"},
      {"measurement": "reduction in insoluble Aβ1-40 and Aβ1-42 peptides", "setting": "Tg2576 transgenic mice", "result": "~80", "unit": "%"}
    ]},
    {"compound": "CCCn1c(C)c(C(=O)c2cccc3ccccc23)c2ccccc21", "note": "[JWH-015]", "values": [
      {"measurement": "Aβ/CD-40L-induced NO production", "setting": "N9 cells; Aβ1-42 1 μM, CD-40L 2 μg/mL, FIG. 3(B)", "result": "significantly reduced"},
      {"measurement": "IFN-γ/CD-40L-induced NO production", "setting": "N9 cells; IFN-γ 100 U/mL, CD-40L 2 μg/mL, FIG. 3(B)", "result": "significantly reduced"},
      {"measurement": "LPS-induced TNF-α release", "setting": "N9 cells; N9 cells, LPS 100 ng/mL 4 hr, FIG. 3(A)", "result": "reductions"},
      {"measurement": "secretion of TNF-α induced by Aβ1-42/CD40L", "setting": "[4]", "result": "significantly reduced"},
      {"measurement": "secretion of TNF-α induced by IFN-γ/CD40L", "setting": "[4]", "result": "significantly reduced"},
      {"measurement": "microglial phagocytosis compared to control", "setting": "[5]; CB2 agonist treatment alone, 3 μM Aβ1-42, 3 hr", "result": "increased"},
      {"measurement": "microglial phagocytosis of Cy3-Aβ1-42 following CD40L treatment", "setting": "[5]; JWH-015 5 μM with CD40L protein, 3 hr", "result": "rescued"},
      {"measurement": "CD40L-mediated impairment of microglial phagocytosis of Aβ1-42 (band density ratio of Aβ to β-actin)", "setting": "[5]; Western immunoblotting, parallel experiment", "result": "significant attenuation"},
      {"measurement": "Aβ levels (Aβ band densities compared to β-actin)", "setting": "[5]; quantitative immunoblotting, FIG. 4", "result": "significantly reduced"}
    ]},
    {"compound": "α-bungarotoxin", "values": [
      {"measurement": "prevention of the ACh and nicotine inhibition of LPS-induced TNF-α release", "setting": "microglial cells [1]", "result": "prevented"}
    ]}
  ]
}
